This note sets out measurements from patent US9549553B2, “Active compound combinations having insecticidal properties” (BAYER CROPSCIENCE AKTIENGESELLSCHAFT, priority 2013, dated 2017).

What all share (assay type): in vivo
For test [1], the system named is two spotted spidermite (Tetranychus urticae). The experiment in a line: Tetranychus urticae - spray test, OP-resistant (French beans). The settings on record: mortality, 1 g ai/ha. The method, then:
(§1) To produce a suitable preparation of active compound, 1 part by weight of active compound is mixed with the stated amount of solvent and emulsifier, and the concentrate is diluted with emulsifier-containing water to the desired concentration. To produce a suitable preparation of a spore suspension the spores are diluted with emulsifier-containing water to the desired concentration.
French beans (Phaseolus vulgaris) which are heavily infested with all stages of the two spotted spidermite (Tetranychus urticae), are sprayed with a preparation of the active ingredient of the desired concentration.
After the specified period of time, mortality in % is determined. 100% means all spider mites have been killed and 0% means none of the spider mites have been killed. The mortality values determined thus are recalculated using the Colby-formula (see sheet 1).

In test [2] the test system is larvae of the diamondback moth (Plutella xylostella). In words: Plutella xylostella - spray test (cabbage leaves). The settings on record: mortality. The method, then: To produce a suitable preparation of active compound, 1 part by weight of active compound is mixed with the stated amount of solvent and emulsifier, and the concentrate is diluted with emulsifier-containing water to the desired concentration Ammonium salt and/or penetration enhancer in a dosage of 1000 ppm are added to the desired concentration if necessary.
Cabbage leaves (Brassica oleracea) are treated by being sprayed with the preparation of the active compound of the desired concentration and are infested with larvae of the diamondback moth (Plutella xylostella).
After the specified period of time, the mortality in % is determined. 100% means all the caterpillars have been killed; 0% means none of the caterpillars have been killed. The mortality values determined thus are recalculated using the Colby-formula (see sheet 1).

Test [3] relates to green peach aphid (Myzus persicae). The experiment in a line: Myzus persicae - spray test, Example C-1 (Chinese cabbage leaf-disks). The settings on record: mortality. The protocol: To produce a suitable preparation of active compound, 1 part by weight of active compound is mixed with the stated amount of solvent and emulsifier, and the concentrate is diluted with emulsifier-containing water to the desired concentration.
Chinese cabbage (Brassica pekinensis) leaf-disks infected with all instars of the green peach aphid (Myzus persicae) are sprayed with a preparation of the active ingredient of the desired concentration.
After the specified period of time, mortality in % is determined 100% means all aphids have been killed; 0% means none of the aphids have been killed. The mortality values determined thus are recalculated using the Colby-formula (see sheet 1).

Test [4] relates to mustard beetle larvae (Phaedon cochleariae). In words: Phaedon cochleariae - spray test, Example B-1 (Chinese cabbage leaf-disks). The settings on record: mortality. The method, then: as §1
Chinese cabbage (Brassica pekinensis) leaf-disks are sprayed with a preparation of the active ingredient of the desired concentration. Once dry, the leaf disks are infested with mustard beetle larvae (Phaedon cochleariae).
After the specified period of time, mortality in % is determined. 100% means all beetle larvae have been killed and 0% means none of the beetle larvae have been killed. The mortality values determined thus are recalculated using the Colby-formula (see sheet 1).

The subject of test [5] is fall armyworm larvae (Spodoptera frugiperda). In words: Spodoptera frugiperda - spray test (maize leaf sections). The settings on record: mortality. The protocol: To produce a suitable preparation of the active compound, 1 part by weight of active compound is mixed with the stated amount of solvent and emulsifier, and the concentrate is diluted with emulsifier-containing water to the desired concentration. To produce a suitable preparation of a spore suspension the spores are diluted with emulsifier-containing water to the desired concentration.
Maize (Zea mais) leaf sections are sprayed with a preparation of the active ingredient of the desired concentration. Once dry, the leaf sections are infested with fall armyworm larvae (Spodoptera frugiperda).
After the specified period of time, mortality in % is determined. 100% means all caterpillars have been killed and 0% means none of the caterpillars have been killed. The mortality values determined thus are recalculated using the Colby-formula (see sheet 1).

Test [6] deals with mustard beetle larvae (Phaedon cochleariae). The experiment in a line: Phaedon cochleariae - spray test, Example B-2 (cabbage leaves). The note with it: mortality. The protocol:
(§2) Solvent: 7 parts by weight of dimethylformamide
Emulsifier: alkylaryl polyglycol ether
(§3) To produce a suitable preparation of active compound, 1 part by weight of active compound is mixed with the stated amount of solvent and is diluted with water, containing an emulgator concentration of 1000 ppm, to the desired concentration. Further test concentrations are prepared by dilution with emulsifier containing water Ammonium salt and/or penetration enhancer in a dosage of 1000 ppm are added to the desired concentration if necessary.
Cabbage leaves (Brassica oleracea) are treated by being sprayed with the preparation of the active compound of the desired concentration and are infested with mustard beetle larvae (Phaedon cochleariae).
After the specified period of time mortality in % is determined. 100% means all the beetle larvae have been killed and 0% means none of the beetle larvae have been killed. The mortality values determined thus are recalculated using the Colby-formula (see sheet 1).

Test [7] deals with green peach aphid (Myzus persicae). In words: Myzus persicae - spray test, Example C-2 (cabbage leaves). The note with it: mortality, 0.5 ppm. The method, then: as §2
Emulsifier: alkylaryl polyglycolether
as §3
Cabbage leaves (Brassica oleracea) which are heavily infested by the green peach aphid (Myzus persicae) are treated by being sprayed with the preparation of the active compound of the desired concentration.
After the specified period of time, mortality in % is determined 100% means all the aphids have been killed; 0% means none of the aphids have been killed. The mortality values determined thus are recalculated using the Colby-formula (see sheet 1).

Take `CC1(C)[C@H](C(=O)O[C@H](C#N)c2cccc(Oc3ccccc3)c2)[C@@H]1/C=C(\Cl)C(F)(F)F` (racemic) [Lambda-Cyhalothrin, lambda-Cyhalothrin]: the “Efficacy in % after 6d” value in test [1], in test [3] (0.125 g ai/ha) and in test [4] (0.25 g ai/ha) was 0% each time. In addition, the “Efficacy in % after 3d” value in test [2] (1 ppm) came out at 0%.

Turning to `Cc1cc(C(F)(C(F)(F)F)C(F)(F)F)ccc1NC(=O)c1cccc(Cl)c1C(=O)NC(C)(C)C#N` [(I-5)], the “Efficacy in % after 6d” value was determined as 33% in test [5] (0.8 g ai/ha); 0% in test [3] (1.25 g ai/ha); 0% in test [3] (1.5 g ai/ha); 0% in test [3] (15 g ai/ha); 0% in test [4] (2.5 g ai/ha); 0% in test [4] (12 g ai/ha). The “Efficacy in % after 3d” value worked out at 0% in test [2] (0.25 ppm), 0% in test [6] (1.2 ppm) and 50% in test [6] (4.8 ppm).

Consider `CC1(C)C(C=C(Cl)Cl)C1C(=O)OC(C#N)c1ccc(F)c(Oc2ccccc2)c1` (stereo not drawn) [Beta-Cyfluthrin (II-11), beta-Cyfluthrin], for which the “Efficacy in % after 6d” value in test [5] (0.032 g ai/ha) is listed as 0%; in test [7] it was 50%. Besides, in test [6] (1.2 ppm), the “Efficacy in % after 3d” value was found to be 0%.

Turning to `CC1(C)[C@H](C(=O)O[C@H](C#N)c2cccc(Oc3ccccc3)c2)[C@@H]1C=C(Br)Br` [Deltamethrin], the “Efficacy in % after 6d” value in test [5] (0.25 g ai/ha) and in test [3] (0.15 g ai/ha) was 0% each time.
